Format in all cases: in vivo
One series concerns cats. Briefly: amphetamine-like stereotyped reactions in cats (amphetamine-like CNS stimulant activity). The settings on record: for amphetamine-like stereotyped reactions: cats, comparative tests at similar dosage levels.
For the next series, the system named is rats. The experiment in a line: teratogenicity in rats. Conditions: similar dosage levels.
In another series the test system is rabbits. Briefly: teratogenicity in rabbits. The settings on record: similar dosage levels.
Series [1] concerns reserpine-induced hypothermia. Briefly: reversal of reserpine-induced hypothermia test in mice (antireserpine activity). The settings on record: Mus musculus, Shadbolt et al., read-out: ED50 (median effective dose). The procedure: A test to evaluate this property was carried out with the compounds of formula I (R = H or CH3 O). The test was carried out in mice as described by Shadbolt et al. in J. Med. Chem. vol. 14 p.837 (1971), and the following results were obtained.

On to `CCN(CC)CCOc1ccc(Nc2nc3ccccc3s2)cc1` [2-[4-(2-diethylaminoethoxy)anilino]benzothiazole], for which the “amphetamine-like CNS stimulant activity” value with cats (as shown by stereotyped reactions in cats) is recorded as “undesirably high level of amphetamine-like CNS stimulant activity”. Besides, the amphetamine-like stereotyped reactions result in the series with cats is “produces amphetaminelike stereotyped reactions”.

As for `c1ccc2sc(Nc3ccc(OCCN4CCCCC4)cc3)nc2c1` [2-[4-(2-piperidin-1-ylethoxy)anilino]benzothiazole], the amphetamine-like stereotyped reactions result in the series on cats is given as “causes amphetamine-like stereotyped reactions”.

Take `c1ccc2oc(Nc3ccc(OCCN4CCCC4)cc3)nc2c1` [2-[4-(2-pyrrolidin-1-ylethoxy)anilino]benzoxazole]: the teratogenicity entry in the series with rats and in the series with rabbits was “markedly teratogenic” throughout.

Turning to `c1ccc2sc(Nc3ccc(OCCN4CCCC4)cc3)nc2c1` [compound I, R=hydrogen, 2-[4-(2-pyrrolidin-1-ylethoxy)anilino]benzothiazole], in series [1], the ED50 (commonly the midpoint of the dose-response relation) is 3.7 mg/kg. Also, in the series on rats, the teratogenicity result is listed as “no evidence of teratogenicity”.

In the case of `COc1ccc2sc(Nc3ccc(OCCN4CCCC4)cc3)nc2c1` [compound I, R=methoxy, 5-methoxy-2-[4-(2-pyrrolidin-1-ylethoxy)anilino]benzothiazole], the median effective dose (ED50) in series [1] amounted to 3.1 mg/kg. In addition, the teratogenicity entry in the series with rats and in the series on rabbits was “no evidence of teratogenicity” throughout.

(Values after patent publication US3957999A, “Anilinobenzothiazoles as antidepressants” (The Boots Company, priority 1974, dated 1976).)
